The subject of data set [1] is HeLa cells. In words: Dose Enhancing Factor: potentiation of bleomycin cell growth inhibition (SRB assay). To be noted: test compound 25 μM, bleomycin 0.5 μg/ml. The class given is cell-based. The protocol:
The Dose Enhancing Factor (DEF) is a ratio of the enhancement of cell growth inhibition elicited by the test compound in the presence of bleomycin compared to bleomycin alone. The test compounds were used at a fixed concentration of 25 μM. Bleomycin was used at a concentration of 0.5 μg/ml. The DEF was calculated from the formula: [formula]
GrowthTC is cell growth in presence of the test compound;
GrowthControl is cell growth of control cells;
Growthbleo is cell growth in presence of bleomycin; and
Growth(bleo+TC) is cell growth in presence of bleomycin and the test compound.
Cell growth was assessed using the sulforhodamine B (SRB) assay (Skehan, P., et al., 1990, J. Natl. Cancer Inst., 82, 1107-1112). 2,000 HeLa cells were seeded into each well of a flat-bottomed 96-well microtiter plate in a volume of 100 μl and incubated for 6 hours at 37° C. Cells were either replaced with media alone or with media containing the test compound at a final concentration of 25 μM. Cells were allowed to grow for a further 1 hour before the addition of bleomycin to either untreated cells or test compound treated cells. Cells untreated with either bleomycin or test compound were used as a control. Cells treated with test compound alone were used to assess the growth inhibition by the test compound.
Cells were left for a further 16 hours before replacing the media and allowing the cells to grow for a further 72 hours at 37° C. The media was then removed and the cells fixed with 100 μl of ice cold 10% (w/v) trichloroacetic acid. The plates were incubated at 4° C. for 20 minutes and then washed four times with water. Each well of cells was then stained with 100 μl of 0.4% (w/v) SRB in 1% acetic acid for 20 minutes before washing four times with 1% acetic acid. Plates were then dried for 2 hours at room temperature. The dye from the stained cells was solubilized by the addition of 100 μl of 10 mM Tris Base into each well. Plates were gently shaken and left at room temperature for 30 minutes before measuring the optical density at 564 nm on a Microquant microtiter plate reader.

As a reminder, the melting point is the temperature, or range, at which the solid turns liquid.

On to `O=c1[nH]c(Cc2ccccc2)cc2ccccc12` [Compound 5, 3-Benzyl-1-isoquinolinone], for which the melting point was 193 to 195 °C. In data set [1], the “DEF (Dose Enhancing Factor)” value is 1.1.

`O=c1[nH]c(Cc2ccc(F)cc2)cc2ccccc12` [Compound 6, 3-(4-Fluorobenzyl)-1-isoquinolinone] showed a melting point of 238 to 240 °C.

Turning to `O=c1[nH]c(CCc2ccccc2)cc2ccccc12` [Compound 2, 3-(2-Phenylethyl)-1-isoquinolinone], the melting point was 198 to 200 °C. Further, in data set [1], the “DEF (Dose Enhancing Factor)” value is reported as 1.4.

In the case of `N#Cc1cccc(Cc2c[nH]c(=O)c3ccccc23)c1` [Compound 12, 4-(3-Cyanobenzyl)-1-isoquinolinone], the melting point lay in the range of 85 to 88 °C.

With `COc1ccc(Cc2cc3ccccc3c(=O)[nH]2)cc1` [Compound 1, 3-(4-methoxybenzyl)-1-isoquinolinone], the melting point was in the range of 216 to 218 °C. In addition, the “DEF (Dose Enhancing Factor)” value in data set [1] was 1.15.

The compound `O=c1[nH]cc(Cc2ccc(Br)cc2)c2ccccc12` [Compound 13, 4-(4-Bromobenzyl)-1-isoquinolinone] gave a melting point of 180 to 182 °C.

Compound `O=c1[nH]cc(Cc2ccccc2)c2ccccc12` [Compound 8, 4-benzyl-1-isoquinolinone] yielded a melting point of 217 to 220 °C.

Compound `O=c1[nH]cc(Cc2ccc(F)c(F)c2)c2ccccc12` [Compound 10, 4-(3,4-Difluorobenzyl)-1-isoquinolinone] displayed a melting point of 148 to 150 °C.

For `O=c1[nH]cc(Cc2cccc(F)c2)c2ccccc12` [Compound 11, 4-(3-Fluorobenzyl)-1-isoquinolinone], the melting point is 132 to 134 °C.

`O=c1[nH]cc(Cc2ccc(F)cc2)c2ccccc12` [Compound 9, 4-(4-Fluorobenzyl)-1-isoquinolinone]: the melting point was in the range of 185 to 188 °C.

Compound `COc1cccc(Cc2cc3ccccc3c(=O)[nH]2)c1` [Compound 4, 3-(3-Methoxybenzyl)-1-isoquinolinone] yielded a melting point of 208 to 210 °C. Also, the “DEF (Dose Enhancing Factor)” value in data set [1] came to 1.2.

Consider `O=c1[nH]c(Cc2cccc(O)c2)cc2ccccc12` [Compound 7, 3-(3-hydroxybenzyl)isoquinolinone], for which the melting point lay within 225 to 227 °C. The “DEF (Dose Enhancing Factor)” value in data set [1] turned out to be 1.2.

Turning to `CCC(c1ccccc1)c1cc2ccccc2c(=O)[nH]1` (stereo not drawn) [Compound 3, 3-(1-Phenylpropyl)-1-isoquinolinone], the melting point lay within 179 to 180 °C.

For the origin of these results see patent US6664269B2, “Isoquinolinone derivatives” (Maybridge plc, priority 2001, dated 2003).
